Laboratory results taken from ChEMBL document CHEMBL1629662, “Antimicrobial activity of prulifloxacin tested against a worldwide collection of gastroenteritis-producing pathogens, including those causing traveler's diarrhea” (2009).

The molecules below were run on Yersinia pseudotuberculosis (assay: Antibacterial activity against Yersinia pseudotuberculosis assessed as percent resistant isolates by broth microdilution method).
Type: functional
Work on `CC1(C)S[C@@H]2[C@H](NC(=O)[C@H](N)c3ccccc3)C(=O)N2[C@H]1C(=O)O` [AMPICILLIN] yielded an Activity of 91.3%. `O=C(O)c1cn(C2CC2)c2cc(N3CCNCC3)c(F)cc2c1=O` [CIPROFLOXACIN] was tested, and the Activity was 0%. For `C[C@H]1c2cccc(O)c2C(=O)C2=C(O)[C@]3(O)C(=O)C(C(N)=O)=C(O)[C@@H](N(C)C)[C@@H]3[C@@H](O)[C@@H]21.O` [DOXYCYCLINE], the Activity was 4.3%. Work on `CCn1cc(C(=O)O)c(=O)c2ccc(C)nc21` [NALIDIXIC ACID] yielded an Activity of 6.5%. `CC1Sc2c(C(=O)O)c(=O)c3cc(F)c(N4CCNCC4)cc3n21` (stereo not given) [ULIFLOXACIN] gave an Activity of 0%.
